What was measured:
[1] = target: D(2) dopamine receptor (Rattus norvegicus, UniProt P61169); assay: Ability to inhibit the [3H]spiperone binding to striatum Dopamine receptor D2 was determined in rat; assay type: tissue-based
[2] = tested on: Mus musculus; assay: Antagonism of apomorphine-induced climbing in mice when administered perorally 60 min prior to apomorphine (1 mg/kg); assay type: functional; conditions: po
[3] = tested on: Rattus norvegicus; assay: Suppression of conditioned avoidance behavior in rats when administered perorally 60 min before measurement; assay type: functional; conditions: po
[4] = tested on: Mus musculus; assay: Antagonism of apomorphine-induced climbing in mice when administered intraperitoneally 30 min prior to apomorphine (1 mg/kg); conditions: ip
[5] = target: Serotonin 2 (5-HT2) receptor (Rattus norvegicus, UniProt P30994+P08909+P14842); assay: Ability to inhibit [3H]spiperone binding to 5-hydroxytryptamine 2 receptor determined in rat
[6] = target: T1, Adrenergic receptor alpha-1 (Rattus norvegicus, UniProt P15823+P23944+P43140); assay: Ability to inhibit [3H]WB-4101 binding to alpha-1 adrenergic receptor was determined in rat
T1 sequence (P15823 whole entry): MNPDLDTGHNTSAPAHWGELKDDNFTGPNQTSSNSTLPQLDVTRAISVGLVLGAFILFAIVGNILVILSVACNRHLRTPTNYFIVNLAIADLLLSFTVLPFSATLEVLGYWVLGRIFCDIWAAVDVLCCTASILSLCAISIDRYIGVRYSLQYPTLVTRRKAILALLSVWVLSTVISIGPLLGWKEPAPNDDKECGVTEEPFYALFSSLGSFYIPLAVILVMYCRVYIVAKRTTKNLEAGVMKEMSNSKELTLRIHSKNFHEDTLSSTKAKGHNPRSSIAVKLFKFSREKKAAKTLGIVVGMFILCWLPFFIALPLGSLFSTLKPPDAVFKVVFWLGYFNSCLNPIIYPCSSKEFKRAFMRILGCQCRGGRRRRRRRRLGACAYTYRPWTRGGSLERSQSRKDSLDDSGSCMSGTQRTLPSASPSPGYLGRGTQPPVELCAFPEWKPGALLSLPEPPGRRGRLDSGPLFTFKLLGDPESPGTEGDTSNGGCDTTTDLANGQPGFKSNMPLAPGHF
T1 sequence (P23944 whole entry): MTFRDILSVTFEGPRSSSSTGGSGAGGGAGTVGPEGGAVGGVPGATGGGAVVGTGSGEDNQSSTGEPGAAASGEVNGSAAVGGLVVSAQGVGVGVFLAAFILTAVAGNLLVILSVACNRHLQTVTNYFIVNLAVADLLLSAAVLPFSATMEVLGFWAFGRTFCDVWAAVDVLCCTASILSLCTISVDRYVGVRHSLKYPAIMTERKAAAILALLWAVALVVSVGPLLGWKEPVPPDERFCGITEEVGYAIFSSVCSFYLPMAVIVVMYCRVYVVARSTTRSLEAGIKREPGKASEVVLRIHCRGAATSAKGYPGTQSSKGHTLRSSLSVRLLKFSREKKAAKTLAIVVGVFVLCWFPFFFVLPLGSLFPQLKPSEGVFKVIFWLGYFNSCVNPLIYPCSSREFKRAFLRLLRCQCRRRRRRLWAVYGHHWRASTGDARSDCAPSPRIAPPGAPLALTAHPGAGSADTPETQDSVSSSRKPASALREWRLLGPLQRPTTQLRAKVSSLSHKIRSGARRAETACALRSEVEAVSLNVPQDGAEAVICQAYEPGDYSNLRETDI
T1 sequence (P43140 whole entry): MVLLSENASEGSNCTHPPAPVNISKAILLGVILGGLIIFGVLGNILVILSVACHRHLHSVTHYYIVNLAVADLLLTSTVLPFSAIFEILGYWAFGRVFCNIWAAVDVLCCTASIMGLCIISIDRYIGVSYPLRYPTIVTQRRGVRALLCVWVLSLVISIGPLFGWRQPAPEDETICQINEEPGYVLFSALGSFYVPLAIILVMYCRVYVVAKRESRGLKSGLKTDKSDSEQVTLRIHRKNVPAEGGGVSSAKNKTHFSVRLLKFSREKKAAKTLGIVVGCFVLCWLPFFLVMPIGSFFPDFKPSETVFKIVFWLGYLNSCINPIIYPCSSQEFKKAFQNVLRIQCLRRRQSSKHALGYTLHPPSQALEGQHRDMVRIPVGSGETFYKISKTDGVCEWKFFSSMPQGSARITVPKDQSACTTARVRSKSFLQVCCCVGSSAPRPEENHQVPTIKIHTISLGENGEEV

[7] = tested on: Rattus norvegicus; assay: Induction of catalepsy in rats when administered intraperitoneally 4 hr prior to measurement to groups of 9 animals. value is based on at least three dose levels(40% of animals showed catalepsy); assay type: functional; conditions: ip
[8] = tested on: Rattus norvegicus; assay: Suppression of conditioned avoidance behavior in rats when administered intraperitoneally 30 min before measurement; conditions: ip

Sequence of D(2) dopamine receptor (P61169 whole entry): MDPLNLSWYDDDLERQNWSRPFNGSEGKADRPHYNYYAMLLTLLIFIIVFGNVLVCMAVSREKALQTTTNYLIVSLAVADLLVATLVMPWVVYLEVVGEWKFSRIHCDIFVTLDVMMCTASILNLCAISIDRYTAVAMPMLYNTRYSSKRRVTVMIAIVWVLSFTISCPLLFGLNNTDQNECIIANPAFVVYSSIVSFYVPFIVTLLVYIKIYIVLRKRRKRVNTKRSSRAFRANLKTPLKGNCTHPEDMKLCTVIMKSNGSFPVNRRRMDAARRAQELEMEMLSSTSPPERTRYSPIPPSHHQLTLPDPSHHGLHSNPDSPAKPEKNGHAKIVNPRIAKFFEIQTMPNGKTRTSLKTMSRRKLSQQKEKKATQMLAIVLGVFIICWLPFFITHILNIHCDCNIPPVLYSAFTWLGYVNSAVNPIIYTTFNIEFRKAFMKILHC

Row | SMILES | Ki [1] [nM] | ED50 [2] [mg/kg] | ED50 [3] [mg/kg] | ED50 [4] [mg/kg] | Ki [5] [nM] | Ki [6] [nM] | ED50 [7] [mg/kg] | ED50 [8] [mg/kg]
1 | CCN1CCCC1c1ccc(-c2cc(S(=O)(=O)CC)ccc2OC)[nH]1 (configuration not stated) | 29 | 11.4 | 35 | 4.7 |  |  |  | 
2 | CCN1CCC[C@H]1CNC(=O)c1cc(S(=O)(=O)CC)ccc1OC | 9.3 | 36 | 70 | > 10 | 54000 | 1100 |  | 
3 | COc1ccccc1N1CCN(Cc2ccc(-c3ccc(F)cc3)[nH]2)CC1 | 0.91 | 0.9 | 8.5 | 0.2 | 310 | 57 | > 24 | 2.3
4 | COc1ccccc1N1CCN(CCNC(=O)c2ccc(F)cc2)CC1 |  | 15 | 30 | 0.4 | 700 | 9 | > 7.4 | 0.74
5 | OC1(c2ccc(Cl)cc2)CCN(Cc2ccc(-c3ccc(F)cc3)[nH]2)CC1 | 1100 | 51 | > 50 | 25 | 9300 | 1600 |  | > 20
6 | CCS(=O)(=O)c1ccc(OC)c(-c2ccc(CN3CCN(c4ccccc4OC)CC3)[nH]2)c1 | 7.3 | 35 | > 50 | > 20 |  |  |  | > 20
7 | O=C(NCCN1CCC(O)(c2ccc(Cl)cc2)CC1)c1ccc(F)cc1 | 480 | 20 | > 50 | 9 |  | 250 |  | 
8 | CCS(=O)(=O)c1ccc(OC)c(-c2ccc(CN3CCC(O)(c4ccc(Cl)cc4)CC3)[nH]2)c1 | 150 | > 100 |  | > 20 |  |  |  | 
9 | COc1ccccc1N1CCN(CCCC(=O)c2ccc(F)cc2)CC1 [FLUANISONE] | 2.9 | 25 | > 50 | 0.4 | 52 | 0.87 | ≥ 22 | 2.2
10 | O=C(CCCN1CCC(O)(c2ccc(Cl)cc2)CC1)c1ccc(F)cc1 [HALOPERIDOL] |  |  | 0.8 | 0.08 |  |  | 2 | 0.45
11 | CCN1CCC[C@H]1CNC(=O)c1cc(S(N)(=O)=O)ccc1OC [LEVOSULPIRIDE] |  | 195 | > 220 | > 21 |  | 15000 |  | > 100

Source: ChEMBL document CHEMBL1123646, “2-Phenylpyrroles as conformationally restricted benzamide analogues. A new class of potential antipsychotics. 1” (J Med Chem, 1987)
